Literature values in US10272077B2, “Piperidinone carboxamide azaindane CGRP receptor antagonists” (Merck Sharp & Dohme Corp., priority 2010, dated 2019).
Ends that are not written are not given here.

Columns and labels:
[1] = control group (Petersen et al. 2005)
[2] = marmoset (Doods et al. 2000)
[3] = rats, prior administration (Williamson et al. 1997)
[4] = rat (Escott et al. 1995)

O=C(N[C@@H]1CC[C@@H](c2cccc(F)c2F)CN(CC(F)(F)F)C1=O)N1CCC(n2c(=O)[nH]c3ncccc32)CC1 [telcagepant]
antimigraine effectiveness (phase III clinical trials, orally bioavailable): shown antimigraine effectiveness

NCCCC[C@H](NC(=O)[C@@H](Cc1cc(Br)c(O)c(Br)c1)NC(=O)N1CCC(N2Cc3ccccc3NC2=O)CC1)C(=O)N1CCN(c2ccncc2)CC1 [BIBN4096BS]
treatment of acute attacks of migraine (clinical trials (Olesen et al. 2004)): effective in treating acute attacks of migraine | prevention of headache induced by CGRP infusion [1]: able to prevent headache induced by CGRP infusion | effect on increase in facial blood flow [2]: could be blocked

CGRP(8-37) (VTHRLAGLLSRSGGVVKNNFVPTNVGSKAF; ends and bridges not checked; UniProt P06881 90-119, looked up, fragment) [a peptide CGRP receptor antagonist]
effect on increase of middle meningeal artery diameter [3]: blocked | effect on increased facial blood flow [4]: inhibited
